US9840465B2 (priority 2013, dated 2017)
Read-outs that look alike come from different tables or passages of the source.

Legend:
[1] = test system: Influenza A/California/07/2009 (H1N1), M2 S31N; assay type: cell-based, Influenza A virus
M2 22-62 (S31N) = M2 22-62 (S31N) (Influenza A virus, UniProt P0DOF5, C50S/S31N); assay type: biochemical
[2] = test system: A/PR/8/34 (H1N1), M2 V27T/S31N; assay type: cell-based, Influenza A virus
A/WS/33 (H1N1), M2 S31N = assay type: cell-based, Influenza A virus
[3] = test system: Influenza A/Victoria/3/75 (H3N2); experiment: microbe, parasite or virus in culture; assay type: cell-based
[4] = test system: Influenza A/California/07/2009 (H1N1), M2 S31N; details: cited from earlier work
[5] = test system: Influenza A/California/07/2009 (H1N1); assay type: cell-based, Influenza A virus; details: read-out: EC50 against the passage 12 7-resistant mutant
[6] = read-out: EC50 A/Calif/07/09 (H1N1)
[7] = read-out: EC50s of the drug components of the incubation mixture

Structure (SMILES)	EC50 [1, 6]	EC50 ([1]; read-out: EC50 ± SE (μM) (N))	EC50 [2]	EC50 (A/WS/33 (H1N1), M2 S31N)	other results
NC12CC3CC(CC(C3)C1)C2 [Amantadine (1), Amantadine, reference compound]	240 µM	242 µM	24 µM	24 µM	H^+ Uptake Rate ± SD (%) (N) (M2 22-62 (S31N)): 77 ± 29 (8) %; EC50 ± S.E. (μM) [3]: Inactive; Resistance development [3]: complete during a single 3-4 day passage; EC50 ([3]; Influenza A virus, H3N2, read-out: EC50 ± S.E. (μM)): 2.8 ± 0.3 µM; activity against H1N1 (2009) (known) [4]: inactive
O=C1CCC2(N1)C1CC3CC(C1)CC2C3 (stereo not shown) [Compound 3]	–	15.6 µM	–	–	–
C1CCC2(NC1)C1CC3CC(C1)CC2C3 (stereo not shown) [Compound 6]	–	19.8 µM	–	–	H^+ Uptake Rate ± SD (%) (N) (M2 22-62 (S31N)): 1.3 ± 5.7 (6) %
CCCC1(N)C2CC3CC(C2)CC1C3 (stereo not shown) [Compound 7]	4.7 µM	4.71 µM	0.5 µM	390 µM	H^+ Uptake Rate ± SD (%) (N) (M2 22-62 (S31N)): 24 ± 17 (6) %
C1CNC(C23CC4CC(CC(C4)C2)C3)C1 (stereo not shown) [Compound 8]	–	15.4 µM	–	–	H^+ Uptake Rate ± SD (%) (N) (M2 22-62 (S31N)): 12 ± 13 (5) %
NC1(C23CC4CC(CC(C4)C2)C3)CCCC1 [Compound 9]	–	0.79 µM	–	–	EC50 [1, 7]: 0.36 µM; H^+ Uptake Rate ± SD (%) (N) (M2 22-62 (S31N)): 11 ± 25 (3) %; EC50 [5]: 22 ± 2 µM
C1CCC(C23CC4CC(CC(C4)C2)C3)NC1 (stereo not shown) [Compound 10]	–	7 µM	–	–	EC50 [1, 7]: 2.8 µM
CC12CC3CC(CC(C3)C13CCCN3)C2 [Compound 11, (1r,3s,5R,7S)-1-methylspiro[adamantane-2,2′-pyrrolidine]]	–	36 µM	–	–	H^+ Uptake Rate ± SD (%) (N) (M2 22-62 (S31N)): 17 ± 8.7 (6) %
NCCN1CCCC12C1CC3CC(C1)CC2C3 (stereo not shown) [Compound 12, 2-((1r,3r,5r,7r)-spiro[adamantane-2,2′-pyrrolidin]-1′-yl)ethan-1-amine]	–	2.66 µM	–	–	H^+ Uptake Rate ± SD (%) (N) (M2 22-62 (S31N)): 11 ± 18 (4) %
NC1(C23CC4CC(CC(C4)C2)C3)CCCCC1 [Compound 13, 1-((3r,5r,7r)-adamantan-1-yl)cyclohexan-1-amine]	–	3.62 µM	–	–	EC50 [5]: 10 ± 2 µM
CCCCC1(N)C2CC3CC(C2)CC1C3 (stereo not shown) [Compound 17, (1r,3r,5r,7r)-2-butyladamantan-2-amine]	8.5 µM	–	0.3 µM	355 µM	–
CC(C)CC1(N)C2CC3CC(C2)CC1C3 (stereo not shown) [Compound 18, (1r,3r,5r,7r)-2-isobutyladamantan-2-amine]	8 µM	–	0.3 µM	210 µM	–
NC1(c2ccccc2)C2CC3CC(C2)CC1C3 (stereo not shown) [Compound 19, (1r,3r,5r,7r)-2-phenyladamantan-2-amine]	21 µM	–	< 0.3 µM	86 µM	EC50 [1, 7]: 9.2 µM
NC1(Cc2ccccc2)C2CC3CC(C2)CC1C3 (stereo not shown) [Compound 20, (1r,3r,5r,7r)-2-benzyladamantan-2-amine]	8.6 µM	–	1.2 µM	280 µM	–
CCCCCCC1(N)C2CC3CC(C2)CC1C3 (stereo not shown) [Compound 101, 2-n-hexyl-tricyclo[3.3.1.1^3,7]decan-2-amine]	0.13 µM	–	0.07 µM	13 µM	inhibition of the A/WS/33 strain (in words) (A/WS/33 (H1N1), M2 S31N): some inhibitory effect
CC(C)(N)C12CC3CC(CC(C3)C1)C2 [Compound 259, 2-(adamantan-1-yl)propan-2-amine]	24 µM	–	< 0.2 µM	300 µM	–
CC1CCC2(N1)C1CC3CC(C1)CC2C3 (stereo not shown) [Compound 341, 5-methylspiro[pyrrolidine-2,2′-tricyclo[3.3.1.1^3,7]decane]]	34 µM	–	–	–	efficacy against A/California/07/2009 (in words) [1]: less effective than the others
CC1CNC2(C1)C1CC3CC(C1)CC2C3 (stereo not shown) [Compound 342, 4-Methylspiro[pyrrolidine-2,2′-tricyclo[3.3.1.1^3,7]decane]]	9.5 µM	–	–	–	–
CC1CCNC12C1CC3CC(C1)CC2C3 (stereo not shown) [Compound 343, 3-Methylspiro[pyrrolidine-2,2′-tricyclo[3.3.1.1^3,7]decane]]	7.2 µM	–	–	–	–
CC1CCC2(C3CC4CC(C3)CC2C4)N1C (stereo not shown) [Compound 344, 1,5-Dimethylspiro[pyrrolidine-2,2′-tricyclo[3.3.1.1^3,7]decane]]	7.7 µM	–	–	–	–
CC1CN(C)C2(C1)C1CC3CC(C1)CC2C3 (stereo not shown) [Compound 345, 1,4-dimethylspiro[pyrrolidine-2,2′-tricyclo [3.3.1.1^3,7]decane]]	7 µM	–	–	–	–
CC1CCN(C)C12C1CC3CC(C1)CC2C3 (stereo not shown) [Compound 346, 1,3-dimethylspiro[pyrrolidine-2,2′-tricyclo [3.3.1.1^3,7]decane]]	10.2 µM	–	–	–	–
CCC1CCC2(N1)C1CC3CC(C1)CC2C3 (stereo not shown) [Compound 347, 5-ethylspiro[pyrrolidine-2,2′-tricyclo[3.3.1.1^3,7]decane]]	8.7 µM	–	–	–	–
CC(N)C12CC3CC(CC(C3)C1)C2 (stereo not shown) [Rimantadine (2), Rimantadine, reference compound]	110 µM	106 µM	3.3 µM	310 µM	activity against H1N1 (2009) (known) [4]: inactive
